In patent US7495027B2, “3-aryl-4-hydroxyfuranone compounds and the human and animal health use thereof” (Wyeth, priority 2003, dated 2009):
In brackets after ≈: the same amount, converted by molar mass. Like-named read-outs stand apart in the source and are kept apart here.

Legend:
[1] = target: E. coli UDP-N-acetylglucosamine enolpyruvoyl transferase, MurA (Escherichia coli, UniProt P0A749); assay: biochemical; details: (E) E. coli enzyme
Method: Evaluation of the Inhibitory Activity of Test Compounds Against Enzymes which Catalyze Bacterial Cell Wall Biosynthesis
S. aureus and E. coli UDP-N-acetylglucosamine enolpyruvoyl transferase, MurA
(§1) Preparation of Enzyme Solution:
The enzyme solution is prepared by admixing the following: 50 mM Tris/HCl pH 8.0, […] 1 M Tris, 5 mM DTT, […] 1 M DTT, 20% Glycerol 4 ml 50% Glycerol, add water to 10 ml.
(§2) Preparation of Stop Solution:
A procedure similar to that described by C. […] Experiments are performed by adding a solution of test compound (in a mixture of dimethylsulfoxide and water) and an enzyme solution to a well. After a pre-incubation period of 10 mintues at 37° C., Tris/BME buffer and assay buffer are added. A start point optical density (OD0) reading is taken at 340 nm immediately following the addition of assay buffer. After incubation for 1 hr at 37° C., the stop solution is added and the color is allowed to develop for 30 minutes.

[2] = target: E. coli Enopyruvyl-UPD-N-acetylglucosamine reductase, Mur B (Escherichia coli, UniProt P08373); assay: biochemical; details: (E) E. coli enzyme; for IC50: read-out: MurB IC50 (converted)
Method: S. aureus and E. coli Enopyruvyl-UPD-N-acetylglucosamine reductase, Mur B
Preparation of Tris/BME buffer:
Dilute 17.5 uL of aqueous 5 mM BME (2-mercaptoethanol) to 50 mL with 50 mM Tris/HCl (pH 8.0).
as §1
Dilute aqueous MurB stock solution (0.94 mg/mL) with 200 parts 50 mM Tris/2-BME buffer.
Synthesis of Substrate for MurB (MurA Product EP-UDP-GluNAc):
A mixture of 13 mg UDP-N-acetylglucosamine and 5.5 mg phosphoenolpyruvate are dissolved in 10 mL Tris/BME buffer forming 2 mM concentrations of each reagent in solution.
Preparation of Assay Buffer:
The assay buffer is prepared in water from reagents with the following final concentrations: 100 mM Tris/HCl (pH 8.0), 200 μM NADPH, 100 μM MurB substrate, 10 μM 2-mercaptoethanol, and 10 μM KCl.
Experiments are performed by adding 20 μL of a solution of test compound in a mixture of dimethylsulfoxide and water and 30 μL of enzyme solution to a well. After a pre-incubation period of 20 mins. at 23° C., 50 μL of Tris/BME buffer and 100 μL of assay buffer are added. […] Controls are performed using the same procedure and employing 20 μL of a blank dimethylsulfonide and solvent mixture in place of the test compound solution.
Using these values, the IC50 for each test compound is determined by linear regression analysis.

[3] = target: E. coli Uridine-diphosphate-N-acetvimuramoyl: L-alanine lipase, MurC (Escherichia coli, UniProt P17952); assay: Inhibitory activity against MurC (E. coli); type: biochemical; details: (E) E. coli enzyme; for IC50: read-out: MurC IC50 (converted)
Method: S. aureus and E. coli Uridine-diphosphate-N-acetvimuramoyl: L-alanine lipase, MurC
The buffer is prepared from aqueous reagents with the following final concentrations: 83 mM Tris/HCl (pH 8.0), 50 mM MgC12, and 2 mM ATP.
as §1
A 1 mg/mL stock solution of MurC is prepared in a buffer consisting of 20 mM Tris/HCl (pH 8.5) with 2.5 μM BME. The stock solution is further diluted with the buffer to give a final enzyme concentration of 100 μg/mL for the E. coli stock solution and 70 μg/mL for the S. aureus stock solution.
(§3) Preparation of Test Compound Solutions:
(§4) All test solutions are prepared in DMSO as 10 mg/mL, then diluted with 50 mM Tris/HCl (pH 8.5) to 100 μg/mL.
as §2
The stop solution is prepared by stirring 1 part 4.2% ammonium molydbate in 4N HCl with 2 parts 0.045% malachite green for 30 min.
In this evaluation, the inhibitory activity of a test compound against MurC, the enzyme which catalyzes the third step of bacterial cell wall bioxynthesis is determined. Experiments are performed by adding 2.5 μl buffer, 2.5 μl 0.5M NH4SO2, 5 μl 2 μM L-Ala, 5 μl enzyme solution and 6.5 μl test compound solution to each well in a 96-well microplate. After a pre-incubation period of 10 mins. at 23° C., 3.75 μl of a 0.75 μM solution of UDP-MurNac is added to each well. Following an incubation period of 10 mins. at 37° C., 210 μl stop solution and 50 μl of a 34% w/v sodium citrate solution are added and color is allowed to develop for 10 mins. at 23° C. (Lanzetta et al., Analytical Biochemistry, 1979, 95) Optical density readings are taken at 660 nm using a Molecular Devices Spectra Max 250 with Soft Max software. Controls are performed using the same procedure and omitting the addition of UDP-MurNac.
Using these values the IC50 is determined by linear regression analysis.

[4] = target: T1, S. aureus Uridine-diphosphate-N-acetylmuramoyl-L-alanine: D-glutamate liease, MurD (Staphylococcus aureus, UniProt Q2FZ92); assay: biochemical; details: (S) S. aureus enzyme
T1 sequence (Q2FZ92 1-449): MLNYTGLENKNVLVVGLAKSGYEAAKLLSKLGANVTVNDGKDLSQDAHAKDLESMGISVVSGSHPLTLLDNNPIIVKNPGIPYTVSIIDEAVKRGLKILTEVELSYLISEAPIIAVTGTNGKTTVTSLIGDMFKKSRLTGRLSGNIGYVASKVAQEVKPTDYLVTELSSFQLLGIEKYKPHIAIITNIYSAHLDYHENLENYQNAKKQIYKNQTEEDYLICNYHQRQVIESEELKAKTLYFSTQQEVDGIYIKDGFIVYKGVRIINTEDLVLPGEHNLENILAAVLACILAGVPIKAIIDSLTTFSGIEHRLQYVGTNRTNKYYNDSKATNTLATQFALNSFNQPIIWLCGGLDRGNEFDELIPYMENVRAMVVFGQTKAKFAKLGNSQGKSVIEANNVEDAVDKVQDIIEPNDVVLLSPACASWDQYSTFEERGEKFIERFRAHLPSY
Method: (§5) S. aureus and E. coli Uridine-diphosphate-N-acetylmuramoyl-L-alanine: D-glutamate liease, MurD
as §1, §3, §4, §2
(§6) In this evaluation, the inhibitory activity of a test compound against MurD, the enzyme which catalyzes the fourth step of bacterial cell wall biosynthesis is determined.

[5] = target: E. coli Uridine-diphosphate-N-acetylmuramoyl-L-alanine: D-glutamate liease, MurD (Escherichia coli, UniProt P14900); assay: biochemical; details: (E) E. coli enzyme
Method: as §5
The buffer is prepared from aqueous reagents with the following final concentrations: 83 mM Tris/HCl (pH 8.0), 50 mM MgCl2, and 2 mM ATP.
as §1, §3, §4, §2, §6

staphylococci = assay: Minimum inhibitory concentration, microdilution broth method, staphylococci; type: cell-based; details: Mueller-Hinton broth, 18-22 hours at 35° C.; for MIC: Staphylococcus aureus
Method: (§7) Evaluation of the Minimum Inhibitory Concentration of Test Compounds Against A Variety of Bacterial Strains
(§8) In this evaluation the minimal inhibitory concentration (MIC) of test compounds against Gram positive and Gram negative bacteria is performed using the microdilution broth method as recommended by the National Committee for Clinical Laboratory Standards (Approved Standards M7-A5 2000). Mueller-Hinton broth is used for the enterobacteriaceae, staphylococci and enterococci. Streptococci are also tested in Mueller-Hinton broth supplemented with 5% horse blood (LHB). Test organisms include recent clinical isolates that are resistant to methicillin, penicillin and/or vancomycin. […].

enterococci = assay: Minimum inhibitory concentration, microdilution broth method, enterococci; type: cell-based; details: Mueller-Hinton broth, 18-22 hours at 35° C.; for MIC: Enterococcus faecalis
Method: as §7, §8

Streptococci = assay: Minimum inhibitory concentration, microdilution broth method, streptococci; type: cell-based; details: Mueller-Hinton broth with 5% horse blood, 18-22 hours at 35° C.; for MIC: S. pneumo GC 1894
Method: as §7, §8

[6] = S. aureus GC 1131, read-out: MIC S. aureus GC 1131
[7] = S. aureus GC 4543, read-out: MIC S. aureus GC 4543
[8] = E. faecalis GC 2242, read-out: MIC E. faecalis GC 2242
[9] = E. faecalis GC 4555, read-out: MIC E. faecalis GC 4555

E. coli UDP-N-acetylglucosamine enolpyruvoyl transferase, MurA, sequence (P0A749 whole entry): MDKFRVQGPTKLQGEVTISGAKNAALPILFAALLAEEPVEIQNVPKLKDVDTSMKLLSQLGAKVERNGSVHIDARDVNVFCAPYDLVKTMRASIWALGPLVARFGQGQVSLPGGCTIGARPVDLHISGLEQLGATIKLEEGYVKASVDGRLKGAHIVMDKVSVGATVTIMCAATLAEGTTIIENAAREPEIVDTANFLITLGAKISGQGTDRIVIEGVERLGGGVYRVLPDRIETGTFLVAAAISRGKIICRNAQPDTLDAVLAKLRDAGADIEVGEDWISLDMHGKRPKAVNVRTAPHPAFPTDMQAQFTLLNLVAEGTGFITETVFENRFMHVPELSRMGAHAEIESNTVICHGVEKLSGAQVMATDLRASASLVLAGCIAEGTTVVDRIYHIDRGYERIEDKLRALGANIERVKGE
E. coli Uridine-diphosphate-N-acetvimuramoyl: L-alanine lipase, MurC, sequence (P17952 whole entry): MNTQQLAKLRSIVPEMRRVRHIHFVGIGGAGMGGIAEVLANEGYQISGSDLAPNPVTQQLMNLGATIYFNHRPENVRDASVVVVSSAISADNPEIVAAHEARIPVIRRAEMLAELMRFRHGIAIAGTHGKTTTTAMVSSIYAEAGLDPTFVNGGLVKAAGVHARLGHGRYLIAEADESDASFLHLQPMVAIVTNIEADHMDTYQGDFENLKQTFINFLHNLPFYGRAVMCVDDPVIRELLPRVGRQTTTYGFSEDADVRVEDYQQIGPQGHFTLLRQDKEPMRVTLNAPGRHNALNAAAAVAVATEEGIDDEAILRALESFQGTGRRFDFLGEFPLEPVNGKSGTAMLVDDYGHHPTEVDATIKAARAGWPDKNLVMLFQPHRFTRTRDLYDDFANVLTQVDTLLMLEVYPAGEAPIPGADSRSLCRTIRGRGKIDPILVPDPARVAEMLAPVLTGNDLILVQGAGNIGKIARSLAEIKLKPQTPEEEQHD
E. coli Enopyruvyl-UPD-N-acetylglucosamine reductase, Mur B, sequence (P08373 whole entry): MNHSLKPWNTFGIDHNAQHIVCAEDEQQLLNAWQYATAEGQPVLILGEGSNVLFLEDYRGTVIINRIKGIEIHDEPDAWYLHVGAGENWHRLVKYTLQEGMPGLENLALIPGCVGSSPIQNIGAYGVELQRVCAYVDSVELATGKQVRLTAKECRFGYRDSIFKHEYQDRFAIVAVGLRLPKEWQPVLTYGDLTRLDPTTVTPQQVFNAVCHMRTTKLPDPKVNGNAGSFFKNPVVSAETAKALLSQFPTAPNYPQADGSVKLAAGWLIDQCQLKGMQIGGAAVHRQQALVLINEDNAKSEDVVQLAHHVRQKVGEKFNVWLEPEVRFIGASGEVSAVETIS
E. coli Uridine-diphosphate-N-acetylmuramoyl-L-alanine: D-glutamate liease, MurD, sequence (P14900 whole entry): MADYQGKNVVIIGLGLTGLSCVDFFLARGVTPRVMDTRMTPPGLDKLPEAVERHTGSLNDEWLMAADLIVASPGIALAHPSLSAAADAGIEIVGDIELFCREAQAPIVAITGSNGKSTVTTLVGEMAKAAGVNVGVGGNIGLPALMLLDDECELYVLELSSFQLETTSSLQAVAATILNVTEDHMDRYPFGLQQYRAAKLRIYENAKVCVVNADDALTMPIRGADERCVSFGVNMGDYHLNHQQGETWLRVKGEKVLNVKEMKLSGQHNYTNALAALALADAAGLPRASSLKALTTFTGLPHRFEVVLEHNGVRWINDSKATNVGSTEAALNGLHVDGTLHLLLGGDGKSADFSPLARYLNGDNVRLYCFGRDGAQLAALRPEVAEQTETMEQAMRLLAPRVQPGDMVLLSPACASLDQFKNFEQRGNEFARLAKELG

| SMILES | IC50 [1] [µM] | IC50 [2] [µM] | IC50 [3] [µM] | IC50 [4] [µM] | IC50 [5] [µM] | MIC (staphylococci; [6]) [µg/mL] | MIC (staphylococci; [7]) [µg/mL] | MIC (enterococci; [8]) [µg/mL] | MIC (enterococci; [9]) [µg/mL] | MIC (Streptococci) [µg/mL] | MurA IC50 [1] | MurB IC50 [2] | MurC IC50 [3] | MurD IC50 [4] [µg/mL] | MurD IC50 [5] [µg/mL] | MIC S. aureus GC 1131 (staphylococci; S. aureus GC 1131) [µg/mL] | MIC S. aureus GC 4543 (staphylococci; S. aureus GC 4543) [µg/mL] | MIC E. faecalis GC 2242 (enterococci; E. faecalis GC 2242) [µg/mL] | MIC E. faecalis GC 4555 (enterococci; E. faecalis GC 4555) [µg/mL] | MIC S. pneumo GC 1894 (Streptococci) [µg/mL] |
| --- | --- | --- | --- | --- | --- | --- | --- | --- | --- | --- | --- | --- | --- | --- | --- | --- | --- | --- | --- | --- |
| N#Cc1cccc(-c2ccc(/C=C3\OC(=O)C(c4ccccc4C#N)=C3O)cc2)c1 [Example 59] | 43.5 | 15.4 | 15.4 | 12.8 | 12.8 | > 128 | > 128 | 8 (≈ 20.5 µM) | 8 (≈ 20.5 µM) | 32 (≈ 82 µM) |  |  |  |  |  |  |  |  |  |  |
| N#Cc1ccc(C2=C(O)/C(=C/c3ccc(-c4ccc(C#N)cc4)cc3)OC2=O)cc1 [R=H, R1=4-CN—C6H4, R2=4-(4′-CN-biphenyl)] |  |  |  |  |  |  |  |  |  |  | 7 (E) μg/mL | 15 (E) μg/mL | 5 (E) μg/mL | > 25 | 5 | >128 | >128 | 32 (≈ 82 µM) | 64 (≈ 164 µM) | 64 (≈ 164 µM) |
| Cc1ccccc1C1=C(O)/C(=C/c2ccc(-c3ccccc3C)cc2)OC1=O [Example 60] | > 67.9 | > 67.9 | 38 | 59.7 | > 67.9 | 16 (≈ 43.4 µM) | 16 (≈ 43.4 µM) | 8 (≈ 21.7 µM) | 32 (≈ 86.9 µM) | 8 (≈ 21.7 µM) |  |  |  |  |  |  |  |  |  |  |
| O=C1O/C(=C\c2ccc(-c3ccccc3C(F)(F)F)cc2)C(O)=C1c1ccccc1C(F)(F)F [Example 61] | > 52.5 | > 52.5 | 29.4 | 39.9 | > 52.5 | 16 (≈ 33.6 µM) | 16 (≈ 33.6 µM) | 16 (≈ 33.6 µM) | 32 (≈ 67.2 µM) | 8 (≈ 16.8 µM) |  |  |  |  |  |  |  |  |  |  |
| CC(C)(C)c1ccc(-c2ccc(C3=C(O)/C(=C/c4cccc(C(F)(F)F)c4)OC3=O)cc2)cc1 [Example 132] | 6.46 | 6.46 | 51.7 |  | 17.2 | 16 (≈ 34.4 µM) | 16 (≈ 34.4 µM) | 4 (≈ 8.61 µM) | 8 (≈ 17.2 µM) | 0.25 (≈ 0.538 µM) |  |  |  |  |  |  |  |  |  |  |
| CCOc1ccc(-c2ccc(C3=C(O)/C(=C/c4ccc(Cl)c(C(F)(F)F)c4)OC3=O)cc2)cc1 [Example 124] | 28.8 | 24.6 | > 51.3 |  | > 51.3 | 32 (≈ 65.7 µM) | 32 (≈ 65.7 µM) | 16 (≈ 32.9 µM) | 32 (≈ 65.7 µM) | 1 (≈ 2.05 µM) |  |  |  |  |  |  |  |  |  |  |
| Cc1ccc(C2=C(O)/C(=C/c3ccc(-c4ccc(C)cc4)cc3)OC2=O)cc1 [Example 57] | > 67.9 | 16.3 | 54.3 | 51.6 | 46.1 | 32 (≈ 86.9 µM) | 4 (≈ 10.9 µM) | 2 (≈ 5.43 µM) | 8 (≈ 21.7 µM) | < 0.125 |  |  |  |  |  |  |  |  |  |  |
| O=C1O/C(=C\c2ccc(-c3ccccc3F)cc2)C(O)=C1c1ccccc1F [Example 58] | > 66.4 | > 66.4 | 37.2 | > 66.4 | > 66.4 | 8 (≈ 21.3 µM) | 16 (≈ 42.5 µM) | 16 (≈ 42.5 µM) | > 128 | < 0.125 |  |  |  |  |  |  |  |  |  |  |
| O=C1O/C(=C\c2cc(F)cc(C(F)(F)F)c2)C(O)=C1c1ccc(-c2ccccc2)c(F)c1 [Example 110] | 15.8 | 11.3 | 20.3 |  | 42.8 | 2 (≈ 4.5 µM) | 2 (≈ 4.5 µM) | 1 (≈ 2.25 µM) | 4 (≈ 9 µM) | 0.25 (≈ 0.563 µM) |  |  |  |  |  |  |  |  |  |  |
